# Several values for one entry are separate records, joined by “and”; a condition that tells them apart may be missing. Identical values can stand only once.
# Assays:
# [1] = tested on: vascular malformation patients; assay: Randomized double-blind study in vascular malformation patients: pain severity by Visual Analogue Scale (VAS); assay type: in vivo, human; conditions: for VAS AVERAGE VALUE / VAS MEDIAN VALUE: scale 0-100
# Description: The efficacy was confirmed in a randomized double-blind study in vascular malformation patients. A serabelisib-containing dry syrup (contained 200 mg of serabelisib in 1 g) was administered orally for 24 weeks once a day after breakfast at an adult serabelisib dose of 50 mg or an adult serabelisib dose of 100 mg. For the pediatric patients, the administered dose was made the dose calculated based on body surface area conversion according to the Crawford formula for each of the adult doses. The primary endpoint was the response rate based on the volume change (measured by MRI) of the target lesion at the end of 24 weeks of administration. The severity of pain at the baseline, week 4 of administration, week 12 of administration, and week 24 of administration was evaluated (using VAS). A 10-cm straight line was drawn on the recording paper; the left end was defined as 0 and the right end was defined as 100; "0" was assigned to a condition of "pain completely absent" and "100" was assigned to a condition of "the worst pain, or a more severe pain cannot be imagined"; and inquiry was made as to where the current pain level was on the straight line and this was recorded. It was also recorded when the information about a subject was provided by someone else who was not the subject. In addition, the subjects were classified into under 15 years and 15 years and over for the age when consent was obtained, and recording paper appropriate for each age group was used.
# [2] = tested on: vascular malformation patients; assay: Randomized double-blind study in vascular malformation patients: hyperglycemia side effect diagnosed by a physician; assay type: in vivo, human; conditions: 50 mg or 100 mg serabelisib once a day for 24 weeks; 35 patients; diagnosed by a physician based on test values such as a blood glucose value
# Source text: According to an embodiment, the side effects are hyperglycemia and hypercreatinemia. According to an embodiment, the side effect is hyperglycemia. In the present Description, "hyperglycemia" is an adverse event (side effect) associated with the pharmacological action of a drug and is diagnosed by a physician based on test values such as the blood glucose level.
# The efficacy was confirmed in a randomized double-blind study in vascular malformation patients. A serabelisib-containing dry syrup (contained 200 mg of serabelisib in 1 g) was administered orally for 24 weeks once a day after breakfast at an adult serabelisib dose of 50 mg or an adult serabelisib dose of 100 mg. For the pediatric patients, the administered dose was made the dose calculated based on body surface area conversion according to the Crawford formula for each of the adult doses. The primary endpoint was the response rate based on the volume change (measured by MRI) of the target lesion at the end of 24 weeks of administration.
# • (1) The study is discontinued when a test value of 140 mg/dL or higher is observed for the blood glucose level (fasting) in the clinical test performed at each visit. • (2) The study is discontinued when the clinical tests performed at each visit meets all of the following criteria stipulated for each age group.
# [3] = tested on: vascular malformation patients; assay: Randomized double-blind study in vascular malformation patients: response rate and volume change of target lesion measured by MRI; assay type: in vivo, human; conditions: oral; for RESPONSE RATE AT 12 WEEKS OF ADMINISTRATION: once a day after breakfast, week 12, response = complete + partial (at least 20% reduction in target lesion volume, MRI); for VOLUME CHANGE (AVERAGE VALUE) OF TARGET LESION AT 24 WEEKS OF ADMINISTRATION / RESPONSE RATE AT 24 WEEKS OF ADMINISTRATION: once a day, week 24; for VOLUME CHANGE (AVERAGE VALUE) OF TARGET LESION AT 24 WEEKS OF ADMINISTRATION: MRI; for RESPONSE RATE AT 24 WEEKS OF ADMINISTRATION: primary endpoint
# Description: The efficacy was confirmed in a randomized double-blind study in vascular malformation patients. A serabelisib-containing dry syrup (contained 200 mg of serabelisib in 1 g) was administered orally for 24 weeks once a day after breakfast at an adult serabelisib dose of 50 mg or an adult serabelisib dose of 100 mg. For the pediatric patients, the administered dose was made the dose calculated based on body surface area conversion according to the Crawford formula for each of the adult doses. The primary endpoint was the response rate based on the volume change (measured by MRI) of the target lesion at the end of 24 weeks of administration. In the analysis of the primary endpoint for evaluating efficacy, a complete response was defined as the disappearance of the target lesion and a partial response was defined as an at least 20% reduction in the volume of the target lesion in comparison to that at the time of the screening test. The 95% confidence interval for the response rate (the sum of complete responses and partial responses as a percentage of the total) based on the change in target lesion volume (measured by MRI) between prior to administration and the time point of completion of 24 weeks of administration, was calculated using the Clopper-Pearson method, and whether its lower limit exceeded 12.5% was checked. For the secondary endpoint, the […] based on the change in target lesion volume (measured by MRI) at the time point of completion of 12 weeks of administration was evaluated. With respect to blood vessel malformation lesions, cystic components of lymphatic malformations, lymphedema, lymph fluid, and lymphorrhea (including also intraosseous, extraosseous, and subcutaneous), which are components of vascular malformations, the target lesion detected using the T2 fat-suppressed image was selected for the target lesion and its volume was measured.
# [4] = existing therapeutic agents for vascular malformations; NPL 2, NPL 3; cited from earlier work
compound,measurement,setting,value
"Nc1nc2cc(-c3ccc4ncc(C(=O)N5CCOCC5)n4c3)ccc2o1 [ART-001, serabelisib]",VAS AVERAGE VALUE,"[1]; 50 mg administration group, WEEK 4 OF ADMINISTRATION, baseline average 29.4",20.6
same,VAS MEDIAN VALUE,"[1]; 50 mg administration group, WEEK 4 OF ADMINISTRATION, baseline median 16.0",6.0
same,VAS AVERAGE VALUE,"[1]; 50 mg administration group, WEEK 12 OF ADMINISTRATION, baseline average 29.4",21.2
same,VAS AVERAGE VALUE,"[1]; 50 mg administration group, WEEK 24 OF ADMINISTRATION, baseline average 29.4",16.1
same,VAS MEDIAN VALUE,"[1]; 50 mg administration group, WEEK 24 OF ADMINISTRATION, baseline median 16.0",4.0
same,VAS AVERAGE VALUE,"[1]; 100 mg administration group, WEEK 4 OF ADMINISTRATION, baseline average 24.6",15.8
same,VAS MEDIAN VALUE,"[1]; 100 mg administration group, WEEK 4 OF ADMINISTRATION, baseline median 20.0",2.0
same,VAS AVERAGE VALUE,"[1]; 100 mg administration group, WEEK 12 OF ADMINISTRATION, baseline average 24.6",15.7
same,VAS MEDIAN VALUE,"[1]; 100 mg administration group, WEEK 12 OF ADMINISTRATION, baseline median 20.0",2.0
same,VAS AVERAGE VALUE,"[1]; 100 mg administration group, WEEK 24 OF ADMINISTRATION, baseline average 24.6",12.4
same,VAS MEDIAN VALUE,"[1]; 100 mg administration group, WEEK 24 OF ADMINISTRATION, baseline median 20.0",8.0
same,average values and median values of the VAS after the treatment,"[1]; both the 50 mg administration group and the 100 mg administration group, versus baseline",reduced
same,Hyperglycemia side effect,[2],no subject exhibited an event that was diagnosed as hyperglycemia
same,RESPONSE RATE AT 12 WEEKS OF ADMINISTRATION,"[3]; 50 mg serabelisib (adult dose) as dry syrup, 17 subjects",0% (0)
same,VOLUME CHANGE (AVERAGE VALUE) OF TARGET LESION AT 24 WEEKS OF ADMINISTRATION,[3]; 50 mg serabelisib,-2.3%
same,RESPONSE RATE AT 24 WEEKS OF ADMINISTRATION,"[3]; 50 mg serabelisib, 17 subjects, 95% confidence interval 10.3% - 56.0% (Clopper-Pearson)",29.4% (6) and 29.4% (5)
same,RESPONSE RATE AT 24 WEEKS OF ADMINISTRATION,"[3]; 50 mg serabelisib, 17 subjects, 95% confidence interval 10.3% - 56.0% (Clopper-Pearson), listed as serabelisib",29.4%
same,RESPONSE RATE AT 12 WEEKS OF ADMINISTRATION,"[3]; 100 mg serabelisib (adult dose) as dry syrup, 18 subjects",16.7% (3)
same,VOLUME CHANGE (AVERAGE VALUE) OF TARGET LESION AT 24 WEEKS OF ADMINISTRATION,[3]; 100 mg serabelisib,-12.6%
same,RESPONSE RATE AT 24 WEEKS OF ADMINISTRATION,"[3]; 100 mg serabelisib, 18 subjects, 95% confidence interval 13.3% - 59.0% (Clopper-Pearson)",33.3% (6)
same,RESPONSE RATE AT 24 WEEKS OF ADMINISTRATION,"[3]; 100 mg serabelisib, 18 subjects, 95% confidence interval 13.3% - 59.0% (Clopper-Pearson), listed as serabelisib",33.3%
"Cc1nc(NC(=O)N2CCC[C@H]2C(N)=O)sc1-c1ccnc(C(C)(C)C(F)(F)F)c1 [Alpelisib, alpelisib]",known side effects,[4],hyperglycemia
"CO[C@H]1C[C@@H]2CC[C@@H](C)[C@@](O)(O2)C(=O)C(=O)N2CCCC[C@H]2C(=O)O[C@H]([C@H](C)C[C@@H]2CC[C@@H](O)[C@H](OC)C2)CC(=O)[C@H](C)/C=C(\C)[C@@H](O)[C@@H](OC)C(=O)[C@H](C)C[C@H](C)/C=C/C=C/C=C/1C [Sirolimus, sirolimus]",known side effects,[4],"immunosuppression, hyperglycemia (unknown frequency)"

# Reference: patent EP4635499A1, “PHARMACEUTICAL COMPOSITION FOR VASCULAR MALFORMATIONS AND METHOD FOR CURING VASCULAR MALFORMATIONS” (ARTham Therapeutics Inc., priority 2022, dated 2024)
